Reference: article PMC11588093, “MurA-catalyzed synthesis of 5-enolpyruvylshikimate-3-phosphate confers glyphosate tolerance in bryophytes” (Proceedings of the National Academy of Sciences of the …, 2024)

Tests used:
[1] = target: T1, AtEPSPS (Arabidopsis thaliana, UniProt P05466); assay: dose-response of enzyme activity, phosphate release by malachite green; assay type: biochemical
T1 construct: gene At2g45300; codon-optimised synthetic gene, E. coli BL21(DE3); His-tag removed with 3C protease; IMAC and SEC
T1 sequence (P05466 77-520): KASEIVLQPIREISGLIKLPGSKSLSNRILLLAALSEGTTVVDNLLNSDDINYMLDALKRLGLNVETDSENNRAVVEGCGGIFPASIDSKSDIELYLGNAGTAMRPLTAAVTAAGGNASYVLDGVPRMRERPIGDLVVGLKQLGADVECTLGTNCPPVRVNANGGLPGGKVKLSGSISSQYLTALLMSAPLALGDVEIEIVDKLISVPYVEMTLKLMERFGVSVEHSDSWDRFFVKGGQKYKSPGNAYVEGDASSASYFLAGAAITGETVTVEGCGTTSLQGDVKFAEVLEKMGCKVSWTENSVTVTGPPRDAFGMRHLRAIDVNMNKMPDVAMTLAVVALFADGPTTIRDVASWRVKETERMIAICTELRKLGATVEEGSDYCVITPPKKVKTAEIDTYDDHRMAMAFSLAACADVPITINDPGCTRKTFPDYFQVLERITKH

[2] = target: T2, MpEPSPS (Marchantia polymorpha, UniProt A0A2R6X5Y9); assay: as above; assay type: biochemical
T2 construct: gene MARPO_0034s0104; codon-optimised synthetic gene, E. coli BL21(DE3); His-tag removed with 3C protease; IMAC and SEC
T2 sequence (A0A2R6X5Y9 79-527): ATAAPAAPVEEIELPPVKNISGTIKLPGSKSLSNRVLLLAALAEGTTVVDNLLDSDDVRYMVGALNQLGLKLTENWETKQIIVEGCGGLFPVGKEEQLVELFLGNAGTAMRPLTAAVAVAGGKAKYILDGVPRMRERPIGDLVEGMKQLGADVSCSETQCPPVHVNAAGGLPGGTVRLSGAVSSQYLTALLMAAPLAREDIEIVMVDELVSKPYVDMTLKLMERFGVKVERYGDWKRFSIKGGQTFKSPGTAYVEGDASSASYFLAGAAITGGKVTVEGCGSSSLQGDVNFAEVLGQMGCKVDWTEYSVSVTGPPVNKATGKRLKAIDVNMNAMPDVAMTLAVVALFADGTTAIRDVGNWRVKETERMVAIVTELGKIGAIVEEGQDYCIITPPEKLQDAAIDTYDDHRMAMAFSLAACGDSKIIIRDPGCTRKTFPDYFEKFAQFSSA

[3] = target: T3, MpMurA (Marchantia polymorpha, UniProt A0A2R6X746); assay: phosphate release by malachite green; assay type: biochemical; details: 1 mM UDP-GlcNAc, 1 mM PEP; pH 7.5, 25 °C
T3 construct: gene MARPO_0032s0102; codon-optimised synthetic gene, E. coli BL21(DE3); His-tag removed with 3C protease; IMAC and SEC
T3 sequence (A0A2R6X746 46-482): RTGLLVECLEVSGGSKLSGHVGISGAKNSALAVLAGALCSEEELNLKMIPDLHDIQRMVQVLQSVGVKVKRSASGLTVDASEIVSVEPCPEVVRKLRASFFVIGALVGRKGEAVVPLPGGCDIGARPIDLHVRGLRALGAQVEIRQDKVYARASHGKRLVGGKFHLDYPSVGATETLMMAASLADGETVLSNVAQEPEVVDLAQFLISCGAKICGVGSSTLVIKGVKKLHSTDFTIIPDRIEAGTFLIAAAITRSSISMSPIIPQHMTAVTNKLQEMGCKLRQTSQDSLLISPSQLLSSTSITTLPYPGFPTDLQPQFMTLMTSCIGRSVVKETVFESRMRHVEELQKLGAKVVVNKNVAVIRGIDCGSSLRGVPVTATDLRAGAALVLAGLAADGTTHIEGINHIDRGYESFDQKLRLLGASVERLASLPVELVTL

[4] = target: T3, MpMurA; assay: phosphate release by malachite green; EPSP product by LC-MS/MS; assay type: biochemical; details: 1 mM S3P, 1 mM PEP; pH 7.5, 25 °C
Excerpt: phosphate release by malachite green; EPSP product by LC-MS/MS on MpMurA | Phosphate was produced by MpMurA in the presence of […] and PEP

[5] = substrate: O=C(O)C1=C[C@@H](OP(=O)(O)O)[C@@H](O)[C@H](O)C1; assay: Michaelis-Menten kinetics, phosphate release by malachite green; assay type: biochemical, Marchantia polymorpha; details: co-substrate PEP, pH 7.5, 25 °C
[6] = substrate: C=C(OP(=O)(O)O)C(=O)O; assay: as above; assay type: biochemical, Marchantia polymorpha; details: co-substrate S3P, pH 7.5, 25 °C
[7] = substrate: O=C(O)C1=C[C@@H](OP(=O)(O)O)[C@@H](O)[C@H](O)C1; assay: as above; assay type: biochemical, Arabidopsis thaliana; details: co-substrate PEP, pH 7.5, 25 °C
[8] = substrate: C=C(OP(=O)(O)O)C(=O)O; assay: purified protein; details: co-substrate S3P, pH 7.5, 25 °C

With O=C(O)CNCP(=O)(O)O [glyphosate] the IC50 [1] was 14.5 ± 5.98 µM and the IC50 [2] was 9.6 ± 9.12 µM.

In the case of CC(=O)N[C@H]1[C@@H](OP(=O)(O)OP(=O)(O)OC[C@H]2O[C@@H](n3ccc(=O)[nH]c3=O)[C@H](O)[C@@H]2O)O[C@H](CO)[C@@H](O)[C@@H]1O [UDP-GlcNAc], the “phosphate release by malachite green” value [3] is reported as “the activity of MpMurA with its canonical substrates, UDP-GlcNAc and PEP, were measured”.

For O=C(O)C1=C[C@@H](OP(=O)(O)O)[C@@H](O)[C@H](O)C1 [S3P], the “phosphate release by malachite green; EPSP product by LC-MS/MS” value [4] was “Phosphate was produced by MpMurA in the presence of S3P and PEP”.

B1: MpEPSPS (Marchantia polymorpha) (protein)
chain: T2 sequence (A0A2R6X5Y9 79-527)
notes: codon-optimised synthetic gene, E. coli BL21(DE3); His-tag removed with 3C protease; IMAC and SEC
B1 gave a Km [5] of 119.7 ± 12.82 µM and a Km [6] of 180 ± 26 µM.

B2: AtEPSPS (Arabidopsis thaliana) (protein)
chain: T1 sequence (P05466 77-520)
notes: as for B1
For B2, the Km [7] was 196.7 ± 44.63 µM and the Km [8] was 163 ± 34 µM.
